Results published in patent US10934304B2, “Spirocyclic compounds” (Recurium IP Holdings, LLC, priority 2016, dated 2021).

Columns and labels:
ERK2 = ERK2 (Homo sapiens (Human), UniProt P28482); test: Active ERK1 and ERK2 Kinase Assay (Mobility Shift Assay); assay type: biochemical; settings: activated ERK2, Mobility Shift Assay
Experimental: Activated ERK1 and ERK2 activity was determined in a Mobility Shift Assay (MSA) format as follows: Compound and kinase solution were prepared with assay buffer (20 mM HEPES, 0.01% Triton X-100, 2 mM DTT, pH7.5) and mixed and incubated in for 30 mins at rt. ERK1 & ERK2 were then activated by the addition of F1-Substrate, ATP and metal solution and incubated for 1 h at rt. After 1 h, the reaction was terminated by the addition of […] of Termination Buffer (QuickScout Screening Assist MSA; Carna Biosciences) to the well. The reaction mixture was applied to LabChip™ system (PerkinElmer), and the product and substrate peptide peaks were separated, analyzed and quantitated. The kinase reaction is evaluated by the product ratio calculated from peak heights of product (P) and substrate(S) peptides (P/(P+S)).

A375 (melanoma) cells = test: Proliferation Assay (CellTiter-Glo); assay type: cell-based; settings: 3 days incubation, CellTiter-Glo luminescence
Experimental: A375 (melanoma), Colo-205 (colon cancer), Miapaca (pancreatic), HPAFII (pancreatic), sNF02.0 (neurofibromatosis type 1), sNF96.2 (neurofibromatosis type 1) and 8505 (Thyroid) cells were grown and maintained in RPMI-1640 medium containing 100 U/mL penicillin-streptomycin and 10% fetal bovine serum. Cells were in growth medium in 96-well opaque-walled clear bottom plates and incubated in the CO2 incubator overnight before treatment. Cells were treated with compounds diluted in DMSO and a 10 point 3-fold serial dilutions were done. Plates were placed in 37° C., 5% CO2 to incubate for 3 days. Before they were developed by adding 100 μL of CellTiter-Glo reagent (Promega) to the assay plate, plates were shaken briefly for 2 mins and allowed to incubate at room temperature for 10 mins. The bottom of the plates was pasted with white back seal and luminescence was recorded with Flexstation3 with setting of luminescence, integration time 500 ms.
Compounds of Formula (I), (II) and (III) are active in this assay as noted in Table 2.

Sequence of ERK2 (P28482 whole entry): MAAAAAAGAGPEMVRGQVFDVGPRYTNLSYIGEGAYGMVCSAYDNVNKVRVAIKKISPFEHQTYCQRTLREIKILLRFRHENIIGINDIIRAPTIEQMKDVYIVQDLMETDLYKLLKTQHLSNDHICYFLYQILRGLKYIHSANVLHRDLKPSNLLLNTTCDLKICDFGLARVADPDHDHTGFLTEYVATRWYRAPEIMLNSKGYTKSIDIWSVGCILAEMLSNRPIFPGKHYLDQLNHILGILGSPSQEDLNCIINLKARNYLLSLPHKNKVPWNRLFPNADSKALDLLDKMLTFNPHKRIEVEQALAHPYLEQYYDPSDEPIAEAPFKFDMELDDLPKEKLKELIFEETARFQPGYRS

IC50 (ERK2) | IC50 (A375 (melanoma) cells; Homo sapiens, A-375, 72 h) | SMILES | IC50 (A375 (melanoma) cells)
≤ 50 nM | ≥ 1000 nM | Cn1cnc(-c2ccc(C3=CCN(C(=O)CN4CC[C@]5(CCN(c6ccc7[nH]nc(C8CCS(=O)(=O)CC8)c7c6)C5=O)C4)CC3)cc2)n1 [Example 7, (S)-7-(2-(4-(4-(1-Methyl-1H-1,2,4-triazol-3-yl)phenyl)-5,6-dihydropyridin-1(2H)-yl)-2-oxoethyl)-2-(3-(tetrahydro-2H-thiopyran 1,1-dioxide-4-yl)-1H-indazol-5-yl)-2,7-diazaspiro[4.4]nonan-1-one] | 
≤ 50 nM | ≥ 1000 nM | COc1ncc(-c2n[nH]c3ccc(N4CC[C@]5(CCN(CC(=O)N6CC=C(c7ccc(-c8ncn(C)n8)cc7)CC6)C5)C4=O)cc23)cc1C(F)(F)F [Example 8] | 
≤ 50 nM | ≤ 500 nM | Cn1cnc(-c2ccc(C3=CCN(C(=O)CN4CC[C@]5(CCN(c6ccc7[nH]nc(-c8cnc(C#N)c(Cl)c8)c7c6)C5=O)C4)CC3)cc2)n1 [Example 9] | 
≤ 50 nM | 500 to 1000 nM | Cn1cnc(-c2ccc(C3=CCN(C(=O)CN4CC[C@]5(CCN(c6ccc7[nH]nc(-c8cnc(C#N)c(C(F)(F)F)c8)c7c6)C5=O)C4)CC3)cc2)n1 [Example 10] | 
≤ 50 nM | ≥ 1000 nM | Cn1cnc(-c2ccc(C3=CCN(C(=O)CN4CC[C@]5(CCN(c6ccc7[nH]nc(N8CCCC8)c7c6)C5=O)C4)CC3)cc2)n1 [Example 11, (S)-7-(2-(4-(4-(1-Methyl-1H-1,2,4-triazol-3-yl)phenyl)-5,6-dihydropyridin-1(2H)-yl)-2-oxoethyl)-2-(3-(pyrrolidin-1-yl)-1H-indazol-5-yl)-2,7-diazaspiro[4.4]nonan-1-one] | 
≤ 50 nM | 500 to 1000 nM | Cn1cnc(-c2ccc(C3=CCN(C(=O)CN4CC[C@]5(CCN(c6ccc7[nH]nc(C8CCN(CC(F)(F)F)CC8)c7c6)C5=O)C4)CC3)cc2)n1 [Example 12, (S)-7-(2-(4-(4-(1-Methyl-1H-1,2,4-triazol-3-yl)phenyl)-5,6-dihydropyridin-1(2H)-yl)-2-oxoethyl)-2-(3-(1-(2,2,2-trifluoroethyl)piperidin-4-yl)-1H-indazol-5-yl)-2,7-diazaspiro[4.4]nonan-1-one] | 
≤ 50 nM | ≤ 500 nM | Cn1cnc(-c2ccc(C3=CCN(C(=O)CN4CC[C@]5(CCN(c6ccc7[nH]nc(C8CCOC8)c7c6)C5=O)C4)CC3)cc2)n1 (stereo partly drawn) [Example 13, (5S)-7-(2-(4-(4-(1-Methyl-1H-1,2,4-triazol-3-yl)phenyl)-5,6-dihydropyridin-1(2H)-yl)-2-oxoethyl)-2-(3-(tetrahydrofuran-3-yl)-1H-indazol-5-yl)-2,7-diazaspiro[4.4]nonan-1-one] | 
≤ 50 nM |  | CNC(=O)c1cc(-c2n[nH]c3ccc(N4CC[C@]5(CCN(CC(=O)N6CC=C(c7ccc(-c8nn(C)c(=O)o8)cc7)CC6)C5)C4=O)cc23)ccc1F [Example 16] | ≤ 500 nM
≤ 50 nM | ≤ 500 nM | Cn1cnc(-c2ccc(C3=CCN(C(=O)CN4CC[C@]5(CCN(c6ccc7[nH]nc(C8CCOCC8)c7n6)C5=O)C4)CC3)cc2)n1 [Example 22, (S)-7-(2-(4-(4-(1-Methyl-1H-1,2,4-triazol-3-yl)phenyl)-5,6-dihydropyridin-1(2H)-yl)-2-oxoethyl)-2-(3-(tetrahydro-2H-pyran-4-yl)-1H-pyrazolo[4,3-b]pyridin-5-yl)-2,7-diazaspiro[4.4]nonan-1-one] | 
≤ 50 nM |  | Cn1nc(-c2ccc(C3=CCN(C(=O)CN4CCC5(CCN(c6ccc7[nH]nc(C8CCOCC8)c7n6)C5=O)C4)CC3)cc2)oc1=O (stereo not drawn) [Example 23] | ≤ 500 nM
≤ 50 nM | ≤ 500 nM | Cn1cnc(-c2ccc(C3=CCN(C(=O)CN4CC[C@]5(CCN(c6ccc7[nH]nc(C8=CCOCC8)c7n6)C5=O)C4)CC3)cc2)n1 [Example 26] | 
≤ 50 nM | ≤ 500 nM | Cn1cnc(-c2ccc(C3=CCN(C(=O)CN4CC[C@]5(CCN(c6ccc7[nH]nc(-c8ccc(C#N)cc8)c7n6)C5=O)C4)CC3)cc2)n1 [Example 27] | 
≤ 50 nM | ≤ 500 nM | Cn1cnc(-c2ccc(C3=CCN(C(=O)CN4CC[C@]5(CCN(c6ccc7[nH]nc(-c8ccc(F)cn8)c7c6)C5=O)C4)CC3)cc2)n1 [Example 28, (S)-2-(3-(5-Fluoropyridin-2-yl)-1H-indazol-5-yl)-7-(2-(4-(4-(1-methyl-1H-1,2,4-triazol-3-yl)phenyl)-5,6-dihydropyridin-1(2H)-yl)-2-oxoethyl)-2,7-diazaspiro[4.4]nonan-1-one] | 
≤ 50 nM | ≤ 500 nM | Cn1cnc(-c2ccc(C3=CCN(C(=O)CN4CC[C@]5(CCN(c6ccc7[nH]nc(-c8ccc(C#N)cn8)c7c6)C5=O)C4)CC3)cc2)n1 [Example 29] | 
≤ 50 nM | ≤ 500 nM | CC(C)n1cc(-c2n[nH]c3ccc(N4CC[C@]5(CCN(CC(=O)N6CC=C(c7ccc(-c8nn(C)c(=O)o8)cc7)CC6)C5)C4=O)cc23)cn1 [Example 31] | 
≤ 50 nM | ≤ 500 nM | Cn1nc(-c2ccc(C3=CCN(C(=O)CN4CC[C@]5(CCN(c6ccc7[nH]nc(C8=CCOCC8)c7c6)C5=O)C4)CC3)cc2)oc1=O [Example 32] | 
≤ 50 nM | ≤ 500 nM | Cc1ncc(-c2n[nH]c3ccc(N4CC[C@]5(CCN(CC(=O)N6CC=C(c7ccc(-c8nn(C)c(=O)o8)cc7)CC6)C5)C4=O)cc23)s1 [Example 33] | 
≤ 50 nM | ≤ 500 nM | Cn1cnc(-c2cnc(C3=CCN(C(=O)CN4CC[C@]5(CCN(c6ccc7[nH]nc(C8CCOCC8)c7n6)C5=O)C4)CC3)s2)n1 [Example 34] | 

SMILES | IC50 (ERK2) | IC50 (A375 (melanoma) cells; Homo sapiens, A-375, 72 h) | IC50 (A375 (melanoma) cells)
Cn1nc(-c2ccc(C3=CCN(C(=O)CN4CC[C@]5(CCN(c6ccc7[nH]nc(-c8ccc(C#N)c(Cl)c8)c7c6)C5=O)C4)CC3)cc2)oc1=O [Example 14] | ≤ 50 nM |  | ≤ 500 nM
Cn1nc(-c2ccc(C3=CCN(C(=O)CN4CC[C@]5(CCN(c6ccc7[nH]nc(-c8ccc(C#N)c(C(F)(F)F)c8)c7c6)C5=O)C4)CC3)cc2)oc1=O [Example 15] | ≤ 50 nM |  | 500 to 1000 nM
Cn1cnc(-c2cnc(C3=CCN(C(=O)CN4CC[C@]5(CCN(c6ccc7[nH]nc(-c8ccc(F)cc8)c7c6)C5=O)C4)CC3)s2)n1 [Example 17] | ≤ 50 nM |  | ≤ 500 nM
Cn1nc(-c2ccc(C3=CCN(C(=O)CN4CC[C@]5(CCN(c6ccc7[nH]nc(-c8ccc(F)cc8)c7c6)C5=O)C4)CC3)cc2)oc1=O [Example 18] | ≤ 50 nM |  | ≤ 500 nM
COc1ccc(-c2n[nH]c3ccc(N4CC[C@]5(CCN(CC(=O)N6CC=C(c7ccc(-c8nn(C)c(=O)o8)cc7)CC6)C5)C4=O)cc23)cn1 [Example 19] | ≤ 50 nM |  | ≤ 500 nM
Cc1ccc(-c2n[nH]c3ccc(N4CC[C@]5(CCN(CC(=O)N6CC=C(c7ccc(-c8ncn(C)n8)cc7)CC6)C5)C4=O)nc23)cn1 [Example 20] | ≤ 50 nM |  | ≤ 500 nM
COc1ccc(-c2n[nH]c3ccc(N4CC[C@]5(CCN(CC(=O)N6CC=C(c7ccc(-c8ncn(C)n8)cc7)CC6)C5)C4=O)nc23)cn1 [Example 21] | ≤ 50 nM |  | ≤ 500 nM
Cc1nc2cc(-c3n[nH]c4ccc(N5CC[C@]6(CCN(CC(=O)N7CC=C(c8ccc(-c9ncn(C)n9)cc8)CC7)C6)C5=O)nc34)ccc2o1 [Example 24] | ≤ 50 nM |  | ≤ 500 nM
CC(C)Oc1ccc(-c2n[nH]c3ccc(N4CC[C@]5(CCN(CC(=O)N6CC=C(c7ncc(-c8ncn(C)n8)s7)CC6)C5)C4=O)nc23)cn1 [Example 25] | ≤ 50 nM |  | ≤ 500 nM
